Data: publication PMC8333425, “Discovery of a dual Ras and ARF6 inhibitor from a GPCR endocytosis screen” (Nature Communications, 2021)
Where “and” joins values, the source holds several entries; their conditions need not be identical. Identical values can stand only once.

Experiments:
A549 cells = experiment: Cell viability assay (MTT), A549; type: cell-based, human
Procedure: MDA-MB-231 breast cancer cells and A549 lung carcinomas (1500 cells in 150 μl/well) were seeded overnight on a clear 96-well plate. Twenty-four hours later, the cells were treated with 0.1% DMSO, or different concentrations of Rasarfin (as indicated), or 10 µM of 21.4, 21.8 (MDA-MB-231 breast cancer cells) or Doxorubicin for the indicated times at 37 °C. At each time point, 10 μl of 5 mg/ml MTT was added to each well and the plates were incubated for an additional 4 h at 37 °C. The absorbance at 590 nm was measured by plate reader. Experiments were done in triplicate and repeated three times.

ARF = molecular target: T1, ARF (Homo sapiens, UniProt P62330); experiment: ARF BRET sensor (GGA3-PBD-RlucII / rGFP-CAAX), AT1R-mediated; type: cell-based; conditions: for AngII-promoted BRET, AT1R-mediated ARF activation: individual experiments
T1 construct: endogenous in cells; host or cells: HEK293SL
T1 sequence (P62330 2-175): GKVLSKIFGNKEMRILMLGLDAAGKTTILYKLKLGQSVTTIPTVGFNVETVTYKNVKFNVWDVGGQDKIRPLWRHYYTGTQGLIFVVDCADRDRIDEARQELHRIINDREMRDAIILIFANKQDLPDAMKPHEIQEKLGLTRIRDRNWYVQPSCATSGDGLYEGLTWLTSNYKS
Procedure: HEK293 cells were transfected with a BRET sensor that monitors the interaction between β-arrestins and the β-appendage of AP-2 (Fig. 2a)[26],[33]. […] The small GTPase ARF6, which binds β-arrestins and facilitates AP-2 and clathrin recruitment at the PM, is also necessary for CCPs initiation and receptor internalization. Therefore, ARF6 activity was assessed using the protein-3 binding domain (PBD) of the golgi-associated, gamma adaptin ear-containing, ARF-binding protein 3 (GGA3) fused to GST (GST-GGA3-PBD) in a pull-down assay, which allows the detection of GTP-bound ARF6 in cells[34] (Fig. 2b). […] This inhibition was selective for ARF6 since 21 had no effect on AT1R-dependent ARF1 activation (Supplementary Fig. 2a). We also devised a BRET assay to quantitatively assess 21’s action on ARF activity. The ARF BRET assay was created using the GGA3-PBD fused to RlucII (GGA3-PBD-RlucII) and the rGFP anchored at the PM (rGFP-CAAX) (Supplementary Fig. 3a). […] 21 blocked ARF’s activation by 40–60% following AT1R stimulation (Fig. 2c).
HEK293SL cells were seeded at a density of 7.5 × 10^5 cells per 100-mm dish and 24 h later, transiently transfected as such. For receptor internalization experiments, cells were transfected with 0.12 μg AT1R-RlucII, B2R-RlucII, or β2AR-RlucII and 0.48 μg of either rGFP-CAAX (to assess removal from the PM) or rGFP-FYVE (to assess accumulation in the endosomes). For β-arrestin recruitment assays, cells were transfected with 0.48 μg of receptor-YFP along with 0.12 μg of β-arrestin-RlucII. For β-arrestin/AP-2 binding experiments, cells were transfected with 1 μg Flag-AT1R, 1 μg β2-Adaptin-YFP, and 0.12 μg β-arrestin2-RlucII. For G protein activation, cells were transfected with 3 μg of sp-Flag-AT1R along with either 4.5 μg of the Gαq-polycistronic BRET sensor or 0.24 μg of the Gαi3-RlucII and 0.6 μg of GFP10-Gγ2 and Gβ1 sensors or 0.12 μg PKN-RBD-RlucII and 0.48 μg of rGFP-CAAX. For PKC activation, cells were transfected with 3 μg of sp-Flag-AT1R and 0.18 μg of the PKC sensor. For GTPase activation experiments, cells were transfected with 1 μg Flag-AT1R, 0.48 μg of rGFP-CAAX, and either 0.12 μg of GGA3-PBD-RlucII, PAK-CRIB-RlucII or Raf-RBD-RlucII. For biosensor validation experiments, cells were additionally transfected with 500 ng Flag-K-Ras-WT, Flag-K-Ras-G12V, Flag-K-Ras-SOS-CAAX, HA-ARF6-WT, HA-ARF6-T27N, Myc-Rac1-WT, Myc-Rac1-Q61L or Myc-Rac1-T17N. For PI3K/Akt activation experiments, cells were transfected with 0.48 μg of rGFP-CAAX and 0.12 μg of Akt (PH)-RlucII. After 18 h of transfection, the media was replaced and cells were divided for subsequent experiments. Cells were detached and seeded onto poly-L-ornithine-coated 96-well flat white bottom plates (BrandTech Scientific) at a density of 2.5 × 10^4 cells per well in media. The next day, cells were washed once with Tyrode’s buffer (140 mM NaCl, 2.7 mM KCl, 1 mM CaCl2, 12 mM NaHCO3, 5.6 mM D-glucose, 0.5 mM MgCl2, 0.37 mM NaH2PO4, 25 mM HEPES, pH 7.4) and left in Tyrode’s buffer. For kinetics of β-arrestin recruitment or β-arrestin binding to receptor and AP-2 experiments, cells were serum starved for 30 min, pretreated with 21 (50 µM) or Barbadin (100 µM) for 30 min, stimulated with 100 nM AngII or 1 µM BK and BRET signals were monitored at indicated times using a Victor X Light plate reader (PerkinElmer). Coelenterazine H (final concentration of 5 µM) was added 3–5 min prior to BRET measurements. Filter set was 460/80 nm and 535/30 nm for detecting the RlucII Renilla luciferase (donor) and YFP (acceptor) light emissions, respectively. The BRET ratio was determined by calculating the ratio of the light emitted by YFP over the light emitted by the RlucII. For G protein activation, cells were serum starved, pretreated with compounds for 30 min, stimulated with 100 nM AngII for 2 min (Gαq, Gαi3, and Rho sensors) or 5 min (PKC sensor). […]

CC(C)C(=O)N1CCN(c2ccc(NC(=O)c3cc4ccccc4o3)cc2Cl)CC1 [Compound 21]
A549 cell viability (MTT), compared with MDA-MB-231 cells (A549 cells; 10 µM of Rasarfin): more important cell viability effects | cell viability (MTT signal) (A549 cells; Rasarfin 0.5, 24h): 0.2876 and 0.2844 and 0.2473 and 0.4073 and 0.3734 and 0.2713 | cell viability (MTT signal) (A549 cells; Rasarfin 1, 24h): 0.2899 and 0.2749 and 0.2483 and 0.4128 and 0.3694 and 0.3709 | cell viability (MTT signal) (A549 cells; Rasarfin 2, 24h): 0.2852 and 0.2865 and 0.2518 and 0.3946 and 0.3796 and 0.386 | cell viability (MTT signal) (A549 cells; Rasarfin 5, 24h): 0.2638 and 0.2592 and 0.2504 and 0.3187 and 0.2743 and 0.3116 | cell viability (MTT signal) (A549 cells; Rasarfin 10, 24h): 0.2447 and 0.2619 and 0.2276 and 0.2701 and 0.2102 and 0.246 | cell viability (MTT signal) (A549 cells; Rasarfin 10, 72h): 0.3944 and 0.2496 and 0.4081 and 0.2999 and 0.3697 and 0.3945 | block of ARF activation following AT1R stimulation (BRET) (ARF; 50 μM): 40–60% | IC50 (ARF; AT1R, dose-response): 7 µM | AngII-promoted BRET, AT1R-mediated ARF activation (ARF; Comp 21 50 μM, time 0 min): 0 | AngII-promoted BRET, AT1R-mediated ARF activation (ARF; Comp 21 50 μM, time 2 min): 0.01817 and 0.0425 and 0.0675 | AngII-promoted BRET, AT1R-mediated ARF activation (ARF; Comp 21 50 μM, time 5 min): 0.04183 and 0.1107 and 0.06017 and 0.076 | AngII-promoted BRET, AT1R-mediated ARF activation (ARF; Comp 21 50 μM, time 10 min): 0.04033 and 0.11 and 0.06283 and 0.0785 | AngII-promoted BRET, AT1R-mediated ARF activation (ARF; Comp 21 (50 μM), time 1 min): 0.04233 and 0.01117 and 0.065 | Arf6 MEAN (Fig.4d) (ARF; Log [Comp 21] (M) -4): 20.8744 | Arf6 MEAN (Fig.4d) (ARF; Log [Comp21] (M) -4.3): 30.1774 | Arf6 MEAN (Fig.4d) (ARF; Log [Comp21] (M) -5): 40.2199 | Arf6 MEAN (Fig.4d) (ARF; Log [Comp21] (M) -5.3): 84.9863 | Arf6 MEAN (Fig.4d) (ARF; Log [Comp 21] (M) -6): 88.0739 | Arf6 MEAN (Fig.4d) (ARF; Log [Comp21] (M) -6.3): 99.6353 | Arf6 MEAN (Fig.4d) (ARF; Log [Comp 21] (M) -7): 93.4599
